Data as given in ChEMBL document CHEMBL4507311, “Data for DCP probe A-1155463” (2021).

How the values were obtained:
[1] = biological target: Adenosine receptor A3 (Homo sapiens) (UniProt P0DMS8); assay: A3 (h) Eurofins-Cerep binding assay; set-up: ligand concentration 0.15 nM; conditions: filed as agonist, Compound concentration 10.0 uM
[2] = biological target: Cannabinoid receptor 2 (Homo sapiens) (UniProt P34972); assay: CB2 (h) Eurofins-Cerep binding assay; set-up: ligand concentration 0.8 nM; conditions: filed as agonist, Compound concentration 10.0 uM
[3] = biological target: Apoptosis regulator Bcl-2 (Homo sapiens, UniProt P10415); assay: Time-resolved fluorescence energy transfer (TR-FRET) with BCL2
[4] = biological target: Beta-2 adrenergic receptor (Homo sapiens) (UniProt P07550); assay: Beta2 (h) Eurofins-Cerep binding assay; set-up: ligand concentration 0.3 nM; conditions: filed as antagonist, Compound concentration 10.0 uM
[5] = biological target: GABA-A receptor; anion channel (Rattus norvegicus) (UniProt O09028+P15431+P18506+P18508+P19969+P20236+P23574+P23576+P28471+P28473+P30191+P62813+P63079+P63138+Q91ZM7+Q9ES14); assay: BZD (central) Eurofins-Cerep binding assay; type: protein-complex assay; set-up: ligand concentration 0.4 nM; conditions: filed as agonist, Compound concentration 10.0 uM
[6] = biological target: Delta-type opioid receptor (Homo sapiens, UniProt P41143); assay: delta (DOP) (h) Eurofins-Cerep binding assay; set-up: ligand concentration 0.5 nM; conditions: filed as agonist, Compound concentration 10.0 uM
[7] = biological target: GABA-A receptor; alpha-1/beta-2/gamma-2 (Homo sapiens) (UniProt P14867+P47870+P18507); assay: GABAA1 (h) (alpha1,beta2,gamma2) Eurofins-Cerep binding assay; type: protein-complex assay; set-up: ligand concentration 15 nM; conditions: filed as agonist, Compound concentration 10.0 uM
[8] = biological target: Endothelin receptor type B (Homo sapiens) (UniProt P24530); assay: ETB (h) Eurofins-Cerep binding assay; set-up: ligand concentration 0.03 nM; conditions: filed as agonist, Compound concentration 10.0 uM
[9] = biological target: T1, 5-hydroxytryptamine receptor 3A (Homo sapiens) (UniProt P46098); assay: 5-HT3 (h) Eurofins-Cerep binding assay; set-up: ligand concentration 0.5 nM; conditions: filed as antagonist, Compound concentration 10.0 uM
T1 sequence (whole entry): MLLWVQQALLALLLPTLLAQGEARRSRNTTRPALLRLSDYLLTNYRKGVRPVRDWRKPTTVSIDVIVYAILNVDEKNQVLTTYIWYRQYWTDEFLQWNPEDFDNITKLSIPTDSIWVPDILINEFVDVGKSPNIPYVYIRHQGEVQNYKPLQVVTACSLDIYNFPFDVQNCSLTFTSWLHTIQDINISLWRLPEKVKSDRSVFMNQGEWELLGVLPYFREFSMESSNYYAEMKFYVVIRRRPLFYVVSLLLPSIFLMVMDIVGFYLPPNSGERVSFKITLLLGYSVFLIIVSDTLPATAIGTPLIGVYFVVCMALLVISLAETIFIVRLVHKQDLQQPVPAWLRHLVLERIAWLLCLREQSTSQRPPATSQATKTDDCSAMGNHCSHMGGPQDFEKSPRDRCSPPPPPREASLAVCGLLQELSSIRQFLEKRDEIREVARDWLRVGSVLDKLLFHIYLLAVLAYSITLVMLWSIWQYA

[10] = biological target: Prostaglandin G/H synthase 1 (Homo sapiens) (UniProt P23219); assay: COX1(h) Eurofins-Cerep enzyme and uptake assay; conditions: Compound concentration 10.0 uM
[11] = biological target: Adenosine receptor A2b (Homo sapiens) (UniProt P29275); assay: A2B (h) Eurofins-Cerep binding assay; set-up: ligand concentration 5 nM; conditions: filed as antagonist, Compound concentration 10.0 uM
[12] = biological target: T2, 5-hydroxytryptamine receptor 2C (Homo sapiens) (UniProt P28335); assay: 5-HT2C (h) Eurofins-Cerep binding assay; set-up: ligand concentration 1 nM; conditions: filed as antagonist, Compound concentration 10.0 uM
T2 sequence (whole entry): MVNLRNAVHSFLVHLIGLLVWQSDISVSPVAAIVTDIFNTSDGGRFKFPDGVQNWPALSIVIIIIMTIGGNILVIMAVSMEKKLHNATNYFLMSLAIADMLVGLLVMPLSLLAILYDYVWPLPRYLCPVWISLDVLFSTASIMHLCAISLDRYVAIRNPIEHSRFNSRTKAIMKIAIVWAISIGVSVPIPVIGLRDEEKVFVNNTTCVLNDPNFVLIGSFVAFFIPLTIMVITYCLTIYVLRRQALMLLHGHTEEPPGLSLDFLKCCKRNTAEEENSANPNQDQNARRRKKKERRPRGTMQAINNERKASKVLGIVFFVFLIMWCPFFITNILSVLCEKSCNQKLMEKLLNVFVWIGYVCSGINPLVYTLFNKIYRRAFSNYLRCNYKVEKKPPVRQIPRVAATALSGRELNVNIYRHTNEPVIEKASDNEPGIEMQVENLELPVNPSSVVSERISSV

[13] = biological target: Translocator protein (Rattus norvegicus) (UniProt P16257); assay: BZD (peripheral) Eurofins-Cerep binding assay; set-up: ligand concentration 0.2 nM; conditions: filed as antagonist, Compound concentration 10.0 uM
[14] = biological target: Tumor necrosis factor (Homo sapiens) (UniProt P01375); assay: TNF-alpha (h) Eurofins-Cerep binding assay; set-up: ligand concentration 0.1 nM; conditions: filed as agonist, Compound concentration 10.0 uM
[15] = biological target: Vasopressin V1a receptor (Homo sapiens) (UniProt P37288); assay: V1 a (h) Eurofins-Cerep binding assay; set-up: ligand concentration 0.3 nM; conditions: filed as agonist, Compound concentration 10.0 uM
[16] = biological target: T3, 5-hydroxytryptamine receptor 1A (Homo sapiens) (UniProt P08908); assay: 5-HT1A (h) Eurofins-Cerep binding assay; set-up: ligand concentration 0.5 nM; conditions: filed as agonist, Compound concentration 10.0 uM
T3 sequence (whole entry): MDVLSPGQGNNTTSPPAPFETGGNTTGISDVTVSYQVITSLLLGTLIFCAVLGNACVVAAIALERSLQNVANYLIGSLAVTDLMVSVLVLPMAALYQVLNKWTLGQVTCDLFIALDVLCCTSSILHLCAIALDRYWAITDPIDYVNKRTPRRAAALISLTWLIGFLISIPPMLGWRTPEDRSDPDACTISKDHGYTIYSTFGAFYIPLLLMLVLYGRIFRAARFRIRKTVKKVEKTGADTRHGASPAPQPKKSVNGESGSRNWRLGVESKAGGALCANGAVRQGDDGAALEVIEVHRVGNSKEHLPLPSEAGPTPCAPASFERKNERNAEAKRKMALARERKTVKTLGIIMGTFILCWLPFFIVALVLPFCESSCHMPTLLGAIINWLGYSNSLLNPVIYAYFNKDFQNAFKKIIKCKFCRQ

[17] = biological target: T4, Alpha-2B adrenergic receptor (Homo sapiens) (UniProt P18089); assay: Alpha2B (h) Eurofins-Cerep binding assay; set-up: ligand concentration 2.5 nM; conditions: filed as antagonist, Compound concentration 10.0 uM
T4 sequence (whole entry): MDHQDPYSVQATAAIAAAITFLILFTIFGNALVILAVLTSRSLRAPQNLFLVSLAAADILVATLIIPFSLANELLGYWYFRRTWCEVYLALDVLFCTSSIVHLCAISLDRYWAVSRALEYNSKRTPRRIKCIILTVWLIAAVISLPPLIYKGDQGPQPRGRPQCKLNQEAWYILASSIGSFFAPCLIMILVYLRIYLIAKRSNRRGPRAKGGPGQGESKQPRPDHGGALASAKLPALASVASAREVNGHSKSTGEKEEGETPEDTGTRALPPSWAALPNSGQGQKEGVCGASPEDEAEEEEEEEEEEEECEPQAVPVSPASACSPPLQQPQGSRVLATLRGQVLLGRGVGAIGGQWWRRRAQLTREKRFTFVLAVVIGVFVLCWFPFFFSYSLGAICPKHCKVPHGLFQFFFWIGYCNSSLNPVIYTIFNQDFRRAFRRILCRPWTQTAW

[18] = biological target: 5-hydroxytryptamine receptor 2B (Homo sapiens) (UniProt P41595); assay: 5-HT2B (h) Eurofins-Cerep binding assay; set-up: ligand concentration 0.2 nM; conditions: filed as agonist, Compound concentration 10.0 uM
[19] = biological target: Sigma non-opioid intracellular receptor 1 (Homo sapiens, UniProt Q99720); assay: sigma (non-selective) (h) Eurofins-Cerep binding assay; set-up: ligand concentration 10 nM; conditions: filed as agonist, Compound concentration 10.0 uM
Sigma non-opioid intracellular receptor 1, sequence (Q99720 whole entry): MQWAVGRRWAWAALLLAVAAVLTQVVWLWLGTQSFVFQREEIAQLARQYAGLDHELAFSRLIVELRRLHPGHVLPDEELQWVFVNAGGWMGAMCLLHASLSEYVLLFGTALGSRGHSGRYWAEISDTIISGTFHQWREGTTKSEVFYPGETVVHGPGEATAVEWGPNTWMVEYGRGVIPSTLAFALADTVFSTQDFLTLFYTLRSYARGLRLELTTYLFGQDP

Translocator protein (Rattus norvegicus), sequence (P16257 whole entry, looked up): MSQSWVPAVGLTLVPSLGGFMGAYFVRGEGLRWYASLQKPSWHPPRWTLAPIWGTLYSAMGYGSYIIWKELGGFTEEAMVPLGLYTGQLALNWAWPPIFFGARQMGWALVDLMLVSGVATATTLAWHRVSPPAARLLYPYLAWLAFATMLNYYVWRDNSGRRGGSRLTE
Adenosine receptor A3 (Homo sapiens), sequence (P0DMS8 whole entry): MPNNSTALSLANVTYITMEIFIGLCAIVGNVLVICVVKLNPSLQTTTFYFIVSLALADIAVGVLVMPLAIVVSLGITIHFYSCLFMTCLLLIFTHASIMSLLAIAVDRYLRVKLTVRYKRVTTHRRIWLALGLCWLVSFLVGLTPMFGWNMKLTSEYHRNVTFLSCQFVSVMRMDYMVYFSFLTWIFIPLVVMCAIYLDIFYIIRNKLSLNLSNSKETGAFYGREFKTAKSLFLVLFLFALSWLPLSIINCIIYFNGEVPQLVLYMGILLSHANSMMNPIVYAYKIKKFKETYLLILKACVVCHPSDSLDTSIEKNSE
Adenosine receptor A2b (Homo sapiens), sequence (P29275 whole entry): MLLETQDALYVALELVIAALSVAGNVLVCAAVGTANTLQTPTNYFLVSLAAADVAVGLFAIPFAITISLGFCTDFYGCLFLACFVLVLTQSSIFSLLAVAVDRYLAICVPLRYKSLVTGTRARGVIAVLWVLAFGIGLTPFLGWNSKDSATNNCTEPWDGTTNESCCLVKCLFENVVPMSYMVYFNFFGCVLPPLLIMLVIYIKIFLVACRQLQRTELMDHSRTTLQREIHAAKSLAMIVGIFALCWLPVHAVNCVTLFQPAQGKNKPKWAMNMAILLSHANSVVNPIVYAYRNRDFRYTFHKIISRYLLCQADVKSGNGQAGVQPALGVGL
Apoptosis regulator Bcl-2, sequence (P10415 whole entry): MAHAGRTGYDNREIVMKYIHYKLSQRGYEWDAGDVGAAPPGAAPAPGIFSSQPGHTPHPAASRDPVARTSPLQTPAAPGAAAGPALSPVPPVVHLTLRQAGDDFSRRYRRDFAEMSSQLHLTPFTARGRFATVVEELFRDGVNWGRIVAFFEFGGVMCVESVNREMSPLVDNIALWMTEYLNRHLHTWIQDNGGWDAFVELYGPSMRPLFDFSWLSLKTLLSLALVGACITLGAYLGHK
Vasopressin V1a receptor (Homo sapiens), sequence (P37288 whole entry, looked up): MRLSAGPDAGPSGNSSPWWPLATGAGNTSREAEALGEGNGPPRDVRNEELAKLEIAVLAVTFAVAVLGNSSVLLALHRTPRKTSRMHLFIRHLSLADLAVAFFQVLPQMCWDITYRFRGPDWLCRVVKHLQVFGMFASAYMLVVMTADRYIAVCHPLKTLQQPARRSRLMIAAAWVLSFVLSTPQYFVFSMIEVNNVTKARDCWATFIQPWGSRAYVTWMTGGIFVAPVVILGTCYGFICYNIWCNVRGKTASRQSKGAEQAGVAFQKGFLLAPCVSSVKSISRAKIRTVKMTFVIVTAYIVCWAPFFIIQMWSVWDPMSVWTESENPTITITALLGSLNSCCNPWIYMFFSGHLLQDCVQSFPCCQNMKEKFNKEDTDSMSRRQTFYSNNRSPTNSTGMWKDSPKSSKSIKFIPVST
Prostaglandin G/H synthase 1 (Homo sapiens), sequence (P23219 whole entry): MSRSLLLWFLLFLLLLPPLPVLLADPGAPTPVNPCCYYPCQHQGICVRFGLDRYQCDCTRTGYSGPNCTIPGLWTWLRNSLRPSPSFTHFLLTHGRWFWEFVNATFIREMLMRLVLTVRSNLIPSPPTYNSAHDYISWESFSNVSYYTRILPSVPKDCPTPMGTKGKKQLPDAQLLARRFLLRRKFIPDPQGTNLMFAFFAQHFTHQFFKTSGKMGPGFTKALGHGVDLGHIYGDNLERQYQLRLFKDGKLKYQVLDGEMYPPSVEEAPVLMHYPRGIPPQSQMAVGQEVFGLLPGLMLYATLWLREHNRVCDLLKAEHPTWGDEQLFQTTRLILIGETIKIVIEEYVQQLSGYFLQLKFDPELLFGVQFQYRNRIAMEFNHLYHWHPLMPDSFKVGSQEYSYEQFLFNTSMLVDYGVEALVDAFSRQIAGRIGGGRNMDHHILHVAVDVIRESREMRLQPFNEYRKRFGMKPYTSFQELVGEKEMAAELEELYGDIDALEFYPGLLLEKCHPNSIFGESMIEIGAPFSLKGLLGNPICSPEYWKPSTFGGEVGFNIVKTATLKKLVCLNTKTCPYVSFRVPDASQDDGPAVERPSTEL
Cannabinoid receptor 2 (Homo sapiens), sequence (P34972 whole entry): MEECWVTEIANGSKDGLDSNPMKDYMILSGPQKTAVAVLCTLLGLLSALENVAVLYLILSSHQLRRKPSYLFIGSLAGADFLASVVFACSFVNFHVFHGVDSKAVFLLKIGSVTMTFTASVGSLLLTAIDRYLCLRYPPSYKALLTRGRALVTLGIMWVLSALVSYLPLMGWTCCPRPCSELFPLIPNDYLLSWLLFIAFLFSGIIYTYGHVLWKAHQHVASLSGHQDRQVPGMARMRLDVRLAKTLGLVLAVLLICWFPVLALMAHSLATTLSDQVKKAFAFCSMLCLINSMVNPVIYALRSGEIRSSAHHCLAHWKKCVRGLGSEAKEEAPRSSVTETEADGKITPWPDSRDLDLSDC
5-hydroxytryptamine receptor 2B (Homo sapiens), sequence (P41595 whole entry): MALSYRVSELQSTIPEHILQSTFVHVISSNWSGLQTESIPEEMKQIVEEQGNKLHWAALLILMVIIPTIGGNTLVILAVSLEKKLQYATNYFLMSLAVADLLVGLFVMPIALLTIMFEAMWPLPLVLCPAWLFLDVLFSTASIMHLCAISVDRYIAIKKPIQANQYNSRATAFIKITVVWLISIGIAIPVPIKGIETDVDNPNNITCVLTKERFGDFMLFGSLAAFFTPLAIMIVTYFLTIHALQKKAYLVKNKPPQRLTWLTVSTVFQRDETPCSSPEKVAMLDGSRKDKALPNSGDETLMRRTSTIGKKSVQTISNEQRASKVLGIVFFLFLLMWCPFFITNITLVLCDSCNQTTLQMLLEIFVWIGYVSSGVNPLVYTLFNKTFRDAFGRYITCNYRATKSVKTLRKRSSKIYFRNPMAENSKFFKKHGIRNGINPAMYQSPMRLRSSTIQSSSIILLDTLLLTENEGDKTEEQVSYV
Endothelin receptor type B (Homo sapiens), sequence (P24530 whole entry): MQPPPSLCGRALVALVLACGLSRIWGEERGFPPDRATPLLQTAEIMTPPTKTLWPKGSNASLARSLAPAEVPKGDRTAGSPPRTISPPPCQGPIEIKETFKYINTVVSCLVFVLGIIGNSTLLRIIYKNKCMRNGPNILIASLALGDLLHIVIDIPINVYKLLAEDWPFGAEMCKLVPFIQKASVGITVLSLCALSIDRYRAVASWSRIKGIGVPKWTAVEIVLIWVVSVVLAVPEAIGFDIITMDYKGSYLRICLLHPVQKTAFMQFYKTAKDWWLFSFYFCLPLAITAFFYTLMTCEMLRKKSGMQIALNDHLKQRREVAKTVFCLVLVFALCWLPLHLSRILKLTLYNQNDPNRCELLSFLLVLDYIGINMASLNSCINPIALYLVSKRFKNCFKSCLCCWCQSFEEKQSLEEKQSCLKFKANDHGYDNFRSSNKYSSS
Beta-2 adrenergic receptor (Homo sapiens), sequence (P07550 whole entry, looked up): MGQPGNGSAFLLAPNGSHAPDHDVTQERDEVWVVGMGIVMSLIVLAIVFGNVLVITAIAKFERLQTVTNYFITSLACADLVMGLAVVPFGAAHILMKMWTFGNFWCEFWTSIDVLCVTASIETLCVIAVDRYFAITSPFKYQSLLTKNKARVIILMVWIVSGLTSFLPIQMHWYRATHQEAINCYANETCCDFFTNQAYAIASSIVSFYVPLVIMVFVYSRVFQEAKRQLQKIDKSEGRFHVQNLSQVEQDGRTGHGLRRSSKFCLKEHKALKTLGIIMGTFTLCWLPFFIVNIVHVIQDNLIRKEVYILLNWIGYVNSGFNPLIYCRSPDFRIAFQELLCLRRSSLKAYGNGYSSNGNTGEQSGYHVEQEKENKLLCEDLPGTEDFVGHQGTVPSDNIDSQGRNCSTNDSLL
Tumor necrosis factor (Homo sapiens), sequence (P01375 whole entry): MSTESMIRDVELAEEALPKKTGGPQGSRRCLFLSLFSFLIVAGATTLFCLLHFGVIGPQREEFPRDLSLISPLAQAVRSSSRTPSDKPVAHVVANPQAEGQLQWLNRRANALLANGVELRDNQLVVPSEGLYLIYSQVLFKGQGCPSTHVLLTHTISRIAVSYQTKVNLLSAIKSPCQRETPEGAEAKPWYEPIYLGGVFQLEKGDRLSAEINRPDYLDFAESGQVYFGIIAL
Delta-type opioid receptor, sequence (P41143 whole entry): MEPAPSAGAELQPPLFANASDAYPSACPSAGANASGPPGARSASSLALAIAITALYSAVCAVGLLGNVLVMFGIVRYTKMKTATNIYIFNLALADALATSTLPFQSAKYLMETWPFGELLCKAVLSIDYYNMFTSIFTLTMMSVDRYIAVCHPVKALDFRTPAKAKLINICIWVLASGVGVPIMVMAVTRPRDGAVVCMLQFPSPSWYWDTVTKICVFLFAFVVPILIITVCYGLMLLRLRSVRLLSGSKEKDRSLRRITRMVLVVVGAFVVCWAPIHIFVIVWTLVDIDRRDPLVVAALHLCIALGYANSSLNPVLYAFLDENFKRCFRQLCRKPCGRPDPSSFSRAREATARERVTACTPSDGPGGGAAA

| Structure (SMILES) | % Inhibition of Control Specific Binding (Mean n=2) [1] | % Inhibition of Control Specific Binding (Mean n=2) [2] | IC50 [3] | % Inhibition of Control Specific Binding (Mean n=2) [4] | % Inhibition of Control Specific Binding (Mean n=2) [5] | % Inhibition of Control Specific Binding (Mean n=2) [6] | % Inhibition of Control Specific Binding (Mean n=2) [7] | % Inhibition of Control Specific Binding (Mean n=2) [8] | % Inhibition of Control Specific Binding (Mean n=2) [9] | % Inhibition of Control Values (Mean n=2) [10] | % Inhibition of Control Specific Binding (Mean n=2) [11] | % Inhibition of Control Specific Binding (Mean n=2) [12] | % Inhibition of Control Specific Binding (Mean n=2) [13] | % Inhibition of Control Specific Binding (Mean n=2) [14] | % Inhibition of Control Specific Binding (Mean n=2) [15] | % Inhibition of Control Specific Binding (Mean n=2) [16] | % Inhibition of Control Specific Binding (Mean n=2) [17] | % Inhibition of Control Specific Binding (Mean n=2) [18] | % Inhibition of Control Specific Binding (Mean n=2) [19] |
| --- | --- | --- | --- | --- | --- | --- | --- | --- | --- | --- | --- | --- | --- | --- | --- | --- | --- | --- | --- |
| CN(C)CC#Cc1ccc(OCCCc2sc(N3CCc4cccc(C(=O)Nc5nc6ccccc6s5)c4C3)nc2C(=O)O)c(F)c1 [A-1155463] | 71.6% | 4.1% | 382 nM (not active) | -7% | 18.1% | 77.9% | -2.9% | 9.6% | 2% | 39.5% | 32.8% | 4.7% | 41.3% | -6.3% | 5.3% | 32.2% | -2.5% | -46.8% | 57.8% |
| O=C(Nc1nc2ccccc2s1)c1cccc2c1CN(c1nc(C(=O)O)c(CCOc3ccc(-n4ncc5cncnc54)cc3)s1)CC2 [A-1107969] | 54% | -9.9% | 3780 nM (not active) | -6.9% | 17.3% | -1.8% | -19.5% | 0.8% | -5.7% | 68.2% | -14.8% | 1.7% | 77.2% | -1.7% | 4.8% | -1% | -17.8% | -44.2% | -47.8% |
